{"source": "patent US5380359A", "about": "“Cosmetics based on naturally derived melanin-coated pigments” (Kyowa Hakko Kogyo Co., Ltd., priority 1992, dated 1995)", "test": "Anti-oxidizing property: lipid peroxide elimination rate (Determiner LPO, cumene hydroperoxide)", "assay_type": "biochemical", "settings": "concentration of 0.014%", "protocol": "Purified water was added to 0.1 g of microbial melanin, synthetic melanin or sepia melanin and 0.1 g of sodium hydroxide to prepare 100 ml of solution, and the pH was adjusted to 7 with hydrochloric acid.\nTo 0.1 g of dl-α-tocopherol was added ethanol to prepare 100 ml of solution.\nTo 0.1 g of ascorbic acid was added purified water to prepare 100 ml of solution.\nTo 5.02 mg of an 80% cumene hydroperoxide (hereinafter abbreviated to CPO) solution was added purified water to prepare 100 ml of solution (264 nmol/ml).\nThe microbial melanin solution, the ascorbic acid solution, the dl-α-tocopherol solution, the synthetic melanin solution or the sepia melanin solution was added to a system in which CPO was reacted with a methylene blue derivative in the presence of hemoglobin as a catalyst, using Determiner LPO (product of Kyowa Medex Co., Ltd.) as a reaction reagent, thereby producing an equimolar amount of methylene blue which developed the color of the system. The anti-oxidizing property of the microbial melanin, ascorbic acid, dl-α-tocopherol, the synthetic melanin and the sepia melanin was determined on the basis of the degree of inhibition of the production of methylene blue. […]\nIn the equation, As indicates the absorbance of the test sample, Astd the absorbance of the standard sample, and AB the absorbance of the blank test sample. […]"}
{"smiles": "Cc1c(C)c2c(c(C)c1O)CCC(C)(CCCC(C)CCCC(C)CCCC(C)C)O2", "note": "(racemic) [dl-α-tocopherol]", "values": [{"measurement": "Lipid peroxide elimination rate", "result": 72.4, "unit": "%"}]}
{"smiles": "O=C1O[C@H]([C@@H](O)CO)C(O)=C1O", "note": "[Ascorbic acid, ascorbic acid]", "values": [{"measurement": "Lipid peroxide elimination rate", "result": 97.4, "unit": "%"}]}
